# According to patent US20180296663A1 (priority 2015, published 2018):
# Columns and labels:
# CD4+ T cells = tested on: CD4+ T cells; design: species or system BALB/c mice; details: mouse, in vivo
# CD8+ T cells = tested on: CD8+ T cells; design: species or system Balb/c mice; details: mouse, in vivo
Molecule,frequencies of HA-specific IFN-γ+/TNF+ CD4+ T cells (CD4+ T cells),frequencies of HA-specific IFN-γ+/TNF+CD4+ T cells (CD4+ T cells),number of IFNγ/TNF double-positive multifunctional CD8+ T cells in the spleen (CD8+ T cells)
"Nc1nc2c(ncn2[C@@H]2O[C@@H]3COP(=O)(O)O[C@H]4[C@@H](O)[C@H](n5cnc6c(=O)[nH]c(N)nc65)O[C@@H]4COP(=O)(O)O[C@H]3[C@H]2O)c(=O)[nH]1 [c-di-GMP, cyclic diguanylate monophosphate]",higher frequencies,higher frequencies,
"HMGB1: high mobility group protein (HMGB) compound, which may act as an endogenous immunomodulator",,,significant increase
